According to ChEMBL document CHEMBL1147725, “Identification and biological characterization of 6-aryl-7-isopropylquinazolinones as novel TRPV1 antagonists that are effective in models of chronic pain” (J Med Chem, 2006):
Converted amounts (≈) assume the structure as drawn.

Columns and labels:
[1] = Plasma concentration in rat at 10 mg/kg, po after 1.5 hrs; format: ADME, organism-based; parameters: dose 10 mg/kg, route oral; details: Wistar Han
[2] = Plasma concentration in rat at 10 mg/kg, po after 2 hrs; format: ADME, organism-based; parameters: dose 10 mg/kg, route oral; details: Wistar Han
[3] = Tmax in rat plasma at 3 mg/kg, po; format: ADME, organism-based; parameters: dose 3 mg/kg, route oral; details: Wistar Han
[4] = test system: Rattus norvegicus; assay: Concentration in rat brain at 10 mg/kg, po after 1.5 hrs; format: ADME, organism-based, Wistar Han; parameters: dose 10 mg/kg, route oral; details: in vivo
[5] = test system: Rattus norvegicus; assay: Concentration in rat brain at 1 mg/kg, iv after 1.5 hrs; format: ADME, organism-based, Wistar Han; parameters: dose 1 mg/kg, route intravenous; details: in vivo
[6] = Plasma concentration in rat at 10 mg/kg, po after 6 hrs; format: ADME, organism-based; parameters: dose 10 mg/kg, route oral; details: Wistar Han
[7] = Plasma concentration in rat at 1 mg/kg, iv after 0.5 hrs; format: ADME, organism-based; parameters: dose 1 mg/kg, route intravenous; details: Wistar Han
[8] = Plasma concentration in rat at 3 mg/kg, po after 1.5 hrs; format: ADME, organism-based; parameters: dose 3 mg/kg, route oral; details: Wistar Han
[9] = Cmax in rat plasma at 3 mg/kg, po; format: ADME, organism-based; parameters: dose 3 mg/kg, route oral; details: Wistar Han
[10] = Plasma concentration in rat at 3 mg/kg, po after 18 hrs; format: ADME, organism-based; parameters: dose 3 mg/kg, route oral; details: Wistar Han
[11] = Clearance in rat at 1 mg/kg, iv; format: ADME, organism-based; parameters: dose 1 mg/kg, route intravenous; details: Wistar Han, in vivo
[12] = Volume of distribution in rat at 1 mg/kg, iv; format: ADME, organism-based; parameters: dose 1 mg/kg, route intravenous; details: Wistar Han, in vivo, read-out: Vdss
[13] = Terminal half life in rat at 1 mg/kg, iv; format: ADME, organism-based; parameters: dose 1 mg/kg, route intravenous; details: Wistar Han, in vivo, read-out: beta t1/2 (converted)
[14] = biological target: Transient receptor potential cation channel subfamily V member 1 (Rattus norvegicus, UniProt O35433); assay: Inhibition of low pH activation of rat TRPV1; format: functional
[15] = test system: Rattus norvegicus; assay: Concentration in rat brain at 1 mg/kg, iv after 6 hrs; format: ADME, organism-based, Wistar Han; parameters: dose 1 mg/kg, route intravenous; details: in vivo
[16] = test system: Rattus norvegicus; assay: Concentration in rat brain at 10 mg/kg, po after 0.16 hrs; format: ADME, organism-based, Wistar Han; parameters: dose 10 mg/kg, route oral; details: in vivo
[17] = Plasma concentration in rat at 3 mg/kg, po after 4 hrs; format: ADME, organism-based; parameters: dose 3 mg/kg, route oral; details: Wistar Han
[18] = test system: Rattus norvegicus; assay: Concentration in rat brain at 3 mg/kg, po after 9 hrs; format: ADME, organism-based, Wistar Han; parameters: dose 3 mg/kg, route oral; details: in vivo
[19] = test system: Rattus norvegicus; assay: Concentration in rat brain at 1 mg/kg, iv after 1 hrs; format: ADME, organism-based, Wistar Han; parameters: dose 1 mg/kg, route intravenous; details: in vivo
[20] = biological target: Transient receptor potential cation channel subfamily V member 1 (Rattus norvegicus) (UniProt O35433); assay: Effect on capsaicin induced mechanical hyperalgesia in rat; format: functional
[21] = Terminal half life in rat at 3 mg/kg, po; format: ADME, organism-based; parameters: dose 3 mg/kg, route oral; details: Wistar Han, in vivo, read-out: beta t1/2 (converted)
[22] = test system: Rattus norvegicus; assay: Concentration in rat brain at 1 mg/kg, iv after 0.083 hrs; format: ADME, organism-based, Wistar Han; parameters: dose 1 mg/kg, route intravenous; details: in vivo
[23] = biological target: Transient receptor potential cation channel subfamily V member 1 (Rattus norvegicus) (UniProt O35433); assay: Effect on neuropathic mechanical hyperalgesia in rat at 1 hr; format: functional
[24] = Tmax in rat brain at 1 mg/kg, iv; format: ADME, organism-based; parameters: dose 1 mg/kg, route intravenous; details: Wistar Han
[25] = Plasma concentration in rat at 10 mg/kg, po after 24 hrs; format: ADME, organism-based; parameters: dose 10 mg/kg, route oral; details: Wistar Han
[26] = test system: Rattus norvegicus; assay: Concentration in rat brain at 10 mg/kg, po after 9 hrs; format: ADME, organism-based, Wistar Han; parameters: dose 10 mg/kg, route oral; details: in vivo
[27] = Plasma concentration in rat at 10 mg/kg, po after 9 hrs; format: ADME, organism-based; parameters: dose 10 mg/kg, route oral; details: Wistar Han
[28] = Permeability across Caco-2 cell membrane; format: ADME, cell-based; details: human, read-out: permeability (converted)
[29] = Tmax in rat brain at 3 mg/kg, po; format: ADME, organism-based; parameters: dose 3 mg/kg, route oral; details: Wistar Han
[30] = Aqueous solubility at pH 6.8 and 25 degC; format: physicochemical; details: aqueous medium
[31] = test system: Rattus norvegicus; assay: Concentration in rat brain at 10 mg/kg, po after 2 hrs; format: ADME, organism-based, Wistar Han; parameters: dose 10 mg/kg, route oral; details: in vivo
[32] = Plasma concentration in rat at 1 mg/kg, iv after 1 hrs; format: ADME, organism-based; parameters: dose 1 mg/kg, route intravenous; details: Wistar Han
[33] = Plasma concentration in rat at 3 mg/kg, po after 24 hrs; format: ADME, organism-based; parameters: dose 3 mg/kg, route oral; details: Wistar Han
[34] = Plasma concentration in rat at 10 mg/kg, po after 18 hrs; format: ADME, organism-based; parameters: dose 10 mg/kg, route oral; details: Wistar Han
[35] = Plasma concentration in rat at 3 mg/kg, po after 1 hrs; format: ADME, organism-based; parameters: dose 3 mg/kg, route oral; details: Wistar Han
[36] = test system: Rattus norvegicus; assay: Concentration in rat brain at 3 mg/kg, po after 18 hrs; format: ADME, organism-based, Wistar Han; parameters: dose 3 mg/kg, route oral; details: in vivo
[37] = test system: Rattus norvegicus; assay: Concentration in rat brain at 10 mg/kg, po after 1 hrs; format: ADME, organism-based, Wistar Han; parameters: dose 10 mg/kg, route oral; details: in vivo
[38] = test system: Rattus norvegicus; assay: Concentration in rat brain at 10 mg/kg, po after 24 hrs; format: ADME, organism-based, Wistar Han; parameters: dose 10 mg/kg, route oral; details: in vivo

Transient receptor potential cation channel subfamily V member 1 (Rattus norvegicus), sequence (O35433 whole entry): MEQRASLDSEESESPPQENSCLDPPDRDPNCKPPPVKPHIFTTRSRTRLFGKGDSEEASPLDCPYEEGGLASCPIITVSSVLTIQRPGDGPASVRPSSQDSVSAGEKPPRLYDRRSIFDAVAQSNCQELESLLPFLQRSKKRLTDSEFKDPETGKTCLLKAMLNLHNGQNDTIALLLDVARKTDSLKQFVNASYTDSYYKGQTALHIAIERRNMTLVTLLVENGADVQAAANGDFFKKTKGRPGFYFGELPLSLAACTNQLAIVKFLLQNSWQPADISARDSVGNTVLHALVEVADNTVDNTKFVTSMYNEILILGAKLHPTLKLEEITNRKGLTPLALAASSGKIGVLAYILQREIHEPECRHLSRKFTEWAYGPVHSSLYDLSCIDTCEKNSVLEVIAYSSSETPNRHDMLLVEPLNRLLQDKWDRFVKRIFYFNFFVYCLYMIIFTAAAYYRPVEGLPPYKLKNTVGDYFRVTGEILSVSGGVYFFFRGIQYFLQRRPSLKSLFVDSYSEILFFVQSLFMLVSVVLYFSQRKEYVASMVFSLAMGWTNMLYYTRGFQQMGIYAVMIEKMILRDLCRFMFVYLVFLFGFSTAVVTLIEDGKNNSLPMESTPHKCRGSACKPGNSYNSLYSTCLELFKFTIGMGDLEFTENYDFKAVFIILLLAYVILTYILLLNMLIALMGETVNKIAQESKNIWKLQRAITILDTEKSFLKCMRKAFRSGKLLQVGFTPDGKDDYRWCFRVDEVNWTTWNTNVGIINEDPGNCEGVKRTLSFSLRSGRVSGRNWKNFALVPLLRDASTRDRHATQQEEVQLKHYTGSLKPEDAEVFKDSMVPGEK
Transient receptor potential cation channel subfamily V member 1, sequence (O35433 whole entry): as above

In the case of `Cc1nc2cc(C(C)C)c(-c3ccc(Cl)c(OCC4CC4)c3)cc2c(=O)[nH]1`, the concentration at 1.5 h [1] is reported as 3.72 µM, the concentration at 2 h [2] is reported as 4.34 µM and the Tmax [3] is reported as 4 h. The Ct [4] was 1038 pmol/g, the Ct [5] was 351 pmol/g and the concentration at 6 h [6] was 3.22 µM. It also gave a concentration at 0.5 h [7] of 1.18 µM, a concentration at 1.5 h [8] of 1.79 µM and a Cmax [9] of 1.91 µM. The concentration at 18 h [10] was 0.09 µM, the clearance [11] was 0.315 L/h/kg and the Vd [12] was 1.55 L/kg. The half-life [13] was 3.48 h, the IC50 [14] was 0.105 µM and the Ct [15] was 205 pmol/g. It also gave a Ct [16] of 16.4 pmol/g, a concentration at 4 h [17] of 1.91 µM and a Ct [18] of 249 pmol/g. The Ct [19] was 709 pmol/g, the Activity [20] was “Dose-dependent effect” and the half-life [21] was 3.5 h. The Ct [22] was 960 pmol/g, the ED50 [23] was 2.6 mg/kg and the Tmax [24] was 0.5 h. For the same compound, the concentration at 24 h [25] was 0.106 µM, the Ct [26] was 811 pmol/g and the concentration at 9 h [27] was 2.9 µM. The Papp [28] was 43.7 nm/s, the Tmax [29] was 4 h and the solubility [30] was 0.8 µg/mL (≈ 2.09 µM). For the same compound, the Ct [31] was 1424 pmol/g, the concentration at 1 h [32] was 1.33 µM and the concentration at 24 h [33] was 0.053 µM. The concentration at 18 h [34] was 0.583 µM, the concentration at 1 h [35] was 1.53 µM and the Ct [36] was < 125 pmol/g. The Ct [37] was 522 pmol/g and the Ct [38] was < 25 pmol/g.
